Some test systems named below: NCI/ADR-RES ovarian; OVCAR-4 ovarian; HS 578T breast; MALME-3M melanoma; SNB-19 CNS; MCF7 breast; CAKI-1 renal; MDA-MB-231 breast; MDA-N; MDA-MB-435; HL-60(TB) leukemia; SK-MEL-5 melanoma; ACHN renal; SK-MEL-28 melanoma; HCC-2998 colon; HOP-62 NSCLC; BT-549 breast; CCRF-CEM leukemia; UACC-62 melanoma.
Common to all, as to test: growth of human tumour cells (NCI), 48 h

SMILES strings stand for the structures.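 Where inhibition never reached the appropriate level, the endpoint shown equals the highest concentration tested. Otherwise, values were interpolated linearly from a five-concentration, 48-hour dose response in 96-well plates. TGI denotes the concentration required for complete inhibition of growth.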

With `O=C(c1ccccc1)N1OCCC1Nc1ccc(Br)cc1` (configuration not stated), the TGI with NCI/ADR-RES ovarian, in the experiment on OVCAR-4 ovarian, in the experiment with HS 578T breast, with MALME-3M melanoma, in the experiment with SNB-19 CNS and in the experiment on MCF7 breast was above 10 µM throughout. Also, the TGI with CAKI-1 renal, in the experiment on MDA-MB-231 breast, in the experiment on MDA-N, in the experiment on MDA-MB-435, in the experiment with HL-60(TB) leukemia and in the experiment on SK-MEL-5 melanoma was above 10 µM in each case. Also, the TGI in the experiment on ACHN renal, in the experiment on SK-MEL-28 melanoma, in the experiment on HCC-2998 colon, with HOP-62 NSCLC, with BT-549 breast and with CCRF-CEM leukemia was above 10 µM in each case.
On to `CC(C)(C)OC(=O)NC(CCC(=O)OCc1ccccc1)C(=O)NCCCO` (configuration not stated), for which the TGI in the experiment with NCI/ADR-RES ovarian, with OVCAR-4 ovarian, in the experiment with HS 578T breast, in the experiment with MALME-3M melanoma, in the experiment with SNB-19 CNS and in the experiment on MCF7 breast was above 100 µM each time. Besides, the TGI in the experiment on CAKI-1 renal, with MDA-MB-231 breast, with MDA-N, in the experiment with MDA-MB-435, with HL-60(TB) leukemia and with SK-MEL-5 melanoma was above 100 µM each time. The TGI with ACHN renal, in the experiment on SK-MEL-28 melanoma, with UACC-62 melanoma, with HCC-2998 colon, in the experiment on HOP-62 NSCLC and in the experiment with BT-549 breast was above 100 µM throughout. Besides, the TGI with CCRF-CEM leukemia is above 100 µM.
Regarding `CN1C(=O)C(c2c[nH]c3ccccc23)N(C)C(=O)C1c1c[nH]c2ccccc12` (configuration not stated), the TGI in the experiment on NCI/ADR-RES ovarian, in the experiment with OVCAR-4 ovarian, in the experiment on HS 578T breast, in the experiment on MALME-3M melanoma, in the experiment with MCF7 breast and in the experiment with CAKI-1 renal was above 100 µM each time. Moreover, the TGI in the experiment on MDA-MB-231 breast, in the experiment with MDA-N, with MDA-MB-435, with HL-60(TB) leukemia, in the experiment with SK-MEL-5 melanoma and in the experiment with ACHN renal was above 100 µM in each case. For the same molecule, the TGI in the experiment on SK-MEL-28 melanoma, in the experiment on UACC-62 melanoma, in the experiment with HCC-2998 colon, with HOP-62 NSCLC, in the experiment on BT-549 breast and with CCRF-CEM leukemia was above 100 µM throughout.
Consider `CC(C)(C)OC(=O)N1CCC2(C)CC(=O)CC=C12` (configuration not stated), for which the TGI in the experiment on NCI/ADR-RES ovarian, with OVCAR-4 ovarian, with HS 578T breast, in the experiment on MALME-3M melanoma, in the experiment on SNB-19 CNS and in the experiment on MCF7 breast was above 100 µM in each case. In addition, the TGI with CAKI-1 renal, in the experiment with MDA-MB-231 breast, with MDA-N, with MDA-MB-435, with HL-60(TB) leukemia and in the experiment with SK-MEL-5 melanoma was above 100 µM throughout. Also, the TGI with ACHN renal, in the experiment on SK-MEL-28 melanoma, with UACC-62 melanoma, in the experiment with HCC-2998 colon, in the experiment with HOP-62 NSCLC and in the experiment on BT-549 breast was above 100 µM throughout. This molecule also gave a TGI in the experiment with CCRF-CEM leukemia above 100 µM.
For `O=P1(c2ccccc2)C(c2ccccc2)=CC=C1c1ccccc1`, the TGI was above 100 µM with NCI/ADR-RES ovarian; above 100 µM in the experiment on OVCAR-4 ovarian; above 100 µM with HS 578T breast; above 100 µM in the experiment with MALME-3M melanoma; above 100 µM in the experiment on SNB-19 CNS; 66.6 µM with MCF7 breast. In addition, the TGI with CAKI-1 renal is above 100 µM; in the experiment with MDA-MB-231 breast, above 100 µM; in the experiment with MDA-N, 62.1 µM; with MDA-MB-435 it was 36.4 µM; in the experiment on HL-60(TB) leukemia it was 9.31 µM; in the experiment on SK-MEL-5 melanoma, 28.4 µM. Also, the TGI in the experiment on ACHN renal is above 100 µM; in the experiment on SK-MEL-28 melanoma, above 100 µM; in the experiment with UACC-62 melanoma, above 100 µM; in the experiment on HCC-2998 colon it was 64.8 µM; in the experiment on HOP-62 NSCLC, above 100 µM; with BT-549 breast, above 100 µM. In the experiment on CCRF-CEM leukemia, the TGI came out at 62.7 µM.
As for `O=[N+]([O-])c1cc2c(c([N+](=O)[O-])c1)NCc1ccccc1O2`, the TGI in the experiment on NCI/ADR-RES ovarian, with OVCAR-4 ovarian, in the experiment with HS 578T breast, in the experiment on MALME-3M melanoma, with MCF7 breast and in the experiment on CAKI-1 renal was above 100 µM throughout. Besides, the TGI in the experiment on MDA-MB-231 breast, in the experiment with MDA-N, in the experiment with MDA-MB-435, in the experiment on HL-60(TB) leukemia, in the experiment with SK-MEL-5 melanoma and in the experiment on ACHN renal was above 100 µM in each case. Also, the TGI in the experiment on SK-MEL-28 melanoma, in the experiment with UACC-62 melanoma, in the experiment with HCC-2998 colon, in the experiment on HOP-62 NSCLC, in the experiment on BT-549 breast and in the experiment on CCRF-CEM leukemia was above 100 µM each time.
`Cc1ccc(C(=O)Nc2ccc(CP(=O)(O)O)cc2CP(=O)(O)O)cc1NC(=O)c1cccc(NC(=O)Nc2cccc(C(=O)Nc3cc(C(=O)Nc4ccc(CP(=O)(O)O)cc4CP(=O)(O)O)ccc3C)c2)c1`: the TGI in the experiment on NCI/ADR-RES ovarian, in the experiment on OVCAR-4 ovarian, in the experiment on HS 578T breast, in the experiment on MALME-3M melanoma, with MCF7 breast and in the experiment on CAKI-1 renal was above 100 µM in each case. The TGI with MDA-MB-231 breast, with MDA-N, in the experiment on MDA-MB-435, with HL-60(TB) leukemia, with SK-MEL-5 melanoma and in the experiment with ACHN renal was above 100 µM in each case. Besides, the TGI with SK-MEL-28 melanoma, in the experiment with UACC-62 melanoma, in the experiment with HCC-2998 colon, in the experiment with HOP-62 NSCLC, in the experiment on BT-549 breast and in the experiment on CCRF-CEM leukemia was above 100 µM throughout.
For `C[C@]12C[C@@H](c3ccccc3)Nc3ccccc3N1C(c1ccccc1)=NO2`, the TGI in the experiment on NCI/ADR-RES ovarian was above 100 µM; with OVCAR-4 ovarian it was 81.9 µM; in the experiment on HS 578T breast, above 100 µM; in the experiment on MALME-3M melanoma it was above 100 µM; in the experiment with SNB-19 CNS it was above 100 µM; in the experiment with MCF7 breast it was above 100 µM. Further, the TGI was above 100 µM with CAKI-1 renal; above 100 µM with MDA-MB-231 breast; 68.7 µM with MDA-N; 58.5 µM in the experiment with MDA-MB-435; 71.9 µM with HL-60(TB) leukemia; 30.8 µM with SK-MEL-5 melanoma. Besides, the TGI in the experiment on ACHN renal is above 100 µM; in the experiment with UACC-62 melanoma it was above 100 µM; in the experiment with HCC-2998 colon it was above 100 µM; in the experiment on HOP-62 NSCLC, above 100 µM; in the experiment on BT-549 breast, 90.3 µM; in the experiment with CCRF-CEM leukemia it was 74.3 µM.

The values above are taken from PubChem BioAssay (NCI).
